In article PMC6271978, “1H-2,3-Dihydroperimidine Derivatives: A New Class of Potent Protein Tyrosine Phosphatase 1B Inhibitors” (Molecules, 2013):

Legend:
SHP-1 = target: T1, SHP-1 (Homo sapiens, UniProt P29350); test: SHP-1 inhibition, OMFP substrate assay; type: biochemical
T1 construct: made in house
Procedure: (§1) In addition to potency improvements, we investigated the selectivity of three representative compounds, namely, 1, 46 and 49 against other PTPs (TCPTP, SHP-1, SHP-2, LAR). […] Besides TCPTP, we tested the inhibitory activity of these compounds on other three homogenous enzymes SHP-1, SHP-2, and LAR [25].
(§2) A colorimetric assay to measure inhibition against PTP1B and TCPTP was performed in 96-well plates. Briefly, the tested compounds were solubilized in DMSO and serially diluted into concentrations for the inhibitory test. The assays were carried out in a final volume of 100 μL containing 50 mmol/L MOPS, pH 6.5, 2 mmol/L pNPP, 30 nmol/L GST-PTP1B or GST-TCPTP,and 2% DMSO, and the catalysis of pNPP was continuously monitored on a SpectraMax 340 microplate reader at 405 nm for 3 min at 30 °C. The IC50 value was calculated from the nonlinear curve fitting of the percent inhibition [inhibition (%)] vs. the inhibitor concentration using the Equation (1): Inhibition (%) = 100/[1 + (IC50/[I]k)] (1) where k is the Hill coefficient. To study the inhibition on the other PTPase family members, SHP1, SHP2 and LAR were prepared and assays were performed according to procedures described previously. Briefly, the enzymatic activity of the SHP1, SHP2 and LARwere determined at 30 °C by monitoring the dephosphorylation of substrate 3-o-methylfluorescein phosphate (OMFP), product was then detected at a 485 nm excitation wavelength and 530 nm emission wavelength by the EnVision multilabe plate reader (Perkin-Elmer Life Sciences, Boston, MA, USA). The assays were carried out in a final volume of 50 μL containing 50 mmol/L MOPS, pH 6.8, 10 μmol/L OMFP, 20 nmol/L recombinant enzyme, 2 mmol/L dithiothreitol , 1 mmol/L EDTA, and 2% DMSO. The initial rate of the dephosphorylation was presented by the early linear region of the enzymatic reaction kinetic curve, the inhibitory activity of the compound was continuously monitored.

PTP1B (GST-PTP1B) = target: T2, PTP1B (GST-PTP1B) (Homo sapiens, UniProt P18031); test: PTP1B inhibition, colorimetric pNPP assay; type: biochemical; conditions: pNPP substrate
T2 sequence (P18031 1-435): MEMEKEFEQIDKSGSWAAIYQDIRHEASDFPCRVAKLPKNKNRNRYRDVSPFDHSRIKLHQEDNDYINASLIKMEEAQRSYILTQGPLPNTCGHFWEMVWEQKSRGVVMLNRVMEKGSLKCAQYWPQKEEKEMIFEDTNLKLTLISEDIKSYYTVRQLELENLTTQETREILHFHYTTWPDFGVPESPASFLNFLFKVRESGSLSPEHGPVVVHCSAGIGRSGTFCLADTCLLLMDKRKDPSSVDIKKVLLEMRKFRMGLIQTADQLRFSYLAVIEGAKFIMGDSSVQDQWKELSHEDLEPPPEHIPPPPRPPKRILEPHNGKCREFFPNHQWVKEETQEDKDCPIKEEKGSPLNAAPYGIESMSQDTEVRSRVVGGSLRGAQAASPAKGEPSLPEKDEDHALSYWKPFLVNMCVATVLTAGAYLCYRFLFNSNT

LAR = target: T3, LAR (Homo sapiens, UniProt P10586); test: LAR inhibition, OMFP substrate assay; type: biochemical; conditions: NA = no activity (inhibitory ratio lower than 50% at the dose of 20 μg/mL), PC = Na3VO4
T3 sequence (P10586 1352-1607 limits assumed): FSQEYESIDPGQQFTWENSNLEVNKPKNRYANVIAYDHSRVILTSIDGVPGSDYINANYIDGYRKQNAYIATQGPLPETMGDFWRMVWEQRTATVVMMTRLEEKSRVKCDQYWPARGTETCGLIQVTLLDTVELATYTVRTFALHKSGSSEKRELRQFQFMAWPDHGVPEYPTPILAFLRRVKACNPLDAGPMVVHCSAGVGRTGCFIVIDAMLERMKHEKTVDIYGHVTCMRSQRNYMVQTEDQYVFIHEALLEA
Procedure: as §1
as §2, with “To study the inhibition on the other PTPase family members, SHP1, SHP2 and LAR were prepared and assays were performed according to procedures described previously.” left out, “The assays were carried out in a final volume of 50 μL containing 50 mmol/L MOPS, pH 6.8, 10 μmol/L OMFP, 20 nmol/L recombinant enzyme, 2 mmol/L dithiothreitol , 1 mmol/L EDTA, and 2% DMSO. The initial rate of the dephosphorylation was presented by the early linear region of the enzymatic reaction kinetic curve, the inhibitory activity of the compound was continuously monitored.” left out

[1] = system: tyrosine phosphorylation of insulin receptor β in CHO/hIR cells; test: Tyrosine phosphorylation of insulin receptor in CHO/hIR cells (Western blot); type: cell-based, hamster CHO cells expressing human insulin receptor; conditions: compound 5 µM to 20 µM for 3 h, insulin 10 nM 10 min, versus DMSO
Procedure: To explore the effect of PTP1B inhibitor in vitro on insulin signaling, CHO cells overexpressing human insulin receptor (CHO/hIR) were treated in presence or absence of compound, then tyrosine phosphorylation level of insulin receptor (p-IR) was detected after stimulated by insulin.
CHO/hIR cells were cultured in F12 nutrient medium including 10% (V/V) FBS, 100 units/mL penicillin and 100 μg/mL streptomycin with 5% CO2 at 37 °C. Cells were serum free starved for 2 h, and then treated with compounds for 3 h, followed with insulin (10 nM, Eli Lilly) for 10 min before harvested. Cells were rinsed twice with precooled 1× PBS and then lysed with 1× SDS loading buffer. Samples were heated at 100 °C for 15 min before electrophoresed with 8% SDS-polyarylamide gel under 80 to 120 volt voltage, and then transferred to nitrocellulose (NC) membranes. NC membranes were blocked for 2 h with 5% BSA (W/V) dissolved in TBST. The membranes incubated with primary antibodies overnight at 4 °C and secondary antibodies for 1 h at room temperature. The primary antibody p-Tyr (PY20) used was from Santa Cruz (Dallas, CA, USA) and β-actin from Sigma (St. Louis, MO, USA), secondary antibody was from Jackson Immuno Research (Philadelphia, PA, USA).

TCPTP (GST-TCPTP) = target: T4, TCPTP (GST-TCPTP) (Homo sapiens, UniProt P17706); test: TCPTP inhibition, colorimetric pNPP assay; type: biochemical
T4 sequence (P17706 1-415): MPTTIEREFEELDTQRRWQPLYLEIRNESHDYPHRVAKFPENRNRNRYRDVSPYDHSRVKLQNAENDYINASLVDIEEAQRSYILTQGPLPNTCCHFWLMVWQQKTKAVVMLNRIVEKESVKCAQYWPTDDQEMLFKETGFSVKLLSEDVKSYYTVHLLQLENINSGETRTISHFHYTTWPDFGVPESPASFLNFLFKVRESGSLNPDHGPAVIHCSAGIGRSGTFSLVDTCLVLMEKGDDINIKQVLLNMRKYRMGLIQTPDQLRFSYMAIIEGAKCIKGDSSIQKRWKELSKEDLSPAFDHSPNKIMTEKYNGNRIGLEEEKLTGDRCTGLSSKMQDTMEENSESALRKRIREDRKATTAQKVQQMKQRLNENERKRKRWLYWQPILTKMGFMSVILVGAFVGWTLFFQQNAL
Procedure: as §1, §2

[2] = means ± SD of three replications, OA/PC = oleanolic acid positive control

T1 sequence (P29350 whole entry): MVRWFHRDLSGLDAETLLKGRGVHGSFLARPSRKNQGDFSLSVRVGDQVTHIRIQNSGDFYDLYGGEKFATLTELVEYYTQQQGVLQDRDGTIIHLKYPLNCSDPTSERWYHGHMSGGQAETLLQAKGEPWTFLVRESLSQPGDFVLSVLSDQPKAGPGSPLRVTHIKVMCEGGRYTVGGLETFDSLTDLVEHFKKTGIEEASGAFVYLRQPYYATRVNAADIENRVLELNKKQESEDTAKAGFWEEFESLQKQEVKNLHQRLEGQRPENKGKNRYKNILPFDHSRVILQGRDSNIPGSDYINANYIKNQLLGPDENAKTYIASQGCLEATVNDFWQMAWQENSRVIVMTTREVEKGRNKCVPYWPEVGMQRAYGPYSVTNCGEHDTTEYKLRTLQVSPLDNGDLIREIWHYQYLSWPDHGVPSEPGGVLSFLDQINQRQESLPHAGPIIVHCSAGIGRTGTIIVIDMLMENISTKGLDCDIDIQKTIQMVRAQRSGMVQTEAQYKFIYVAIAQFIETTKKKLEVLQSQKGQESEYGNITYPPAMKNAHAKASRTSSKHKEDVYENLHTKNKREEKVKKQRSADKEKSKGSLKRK

IC50 (SHP-1; OMFP substrate, means ± SD of three replications, PC = Na3VO4): 6010 ± 200 nM | selectivity for PTP1B over SHP-1 (SHP-1; from IC50 values): about 9 fold | inhibition at 20 µg/mL (PTP1B (GST-PTP1B); PTP1B, compound at 20 μg/mL): 99.5% | IC50 (PTP1B (GST-PTP1B); [2]): 660 ± 30 nM | IC50 PTP1B (PTP1B (GST-PTP1B); [2]): submicromolar | IC50 LAR (LAR): no visible activities | IC50 (TCPTP (GST-TCPTP); pNPP substrate, means ± SD of three replications, PC = oleanolic acid): 2300 ± 170 nM | TCPTP/PTP1B (selectivity, fold) (TCPTP (GST-TCPTP); ratio of IC50 TCPTP to IC50 PTP1B): 3.48
SMILES: O=C(O)CNC(=O)c1ccc(C2Nc3cccc4cccc(c34)N2)nc1 [Compound 46]
tyrosine phosphorylation level of insulin receptor (p-IR) [1]: greatly improved p-IR level
